According to ChEMBL document CHEMBL1147166, “Structure-activity relationships of methoctramine-related polyamines as muscarinic antagonist: effect of replacing the inner polymethylene chain with cyclic moieties” (Bioorg Med Chem, 2007):
Activity calls are given as the source filed them. The calls are words filed in the database; no cut-off is given here.

Tests used:
[1] = target: T1, Muscarinic acetylcholine receptor M5 (Homo sapiens, UniProt P08912); test: Displacement of [3H] N-methyl-scopolamine chloride from human muscarinic receptor M5 expressed in CHO cells; format: cell-based
T1 sequence (P08912 whole entry): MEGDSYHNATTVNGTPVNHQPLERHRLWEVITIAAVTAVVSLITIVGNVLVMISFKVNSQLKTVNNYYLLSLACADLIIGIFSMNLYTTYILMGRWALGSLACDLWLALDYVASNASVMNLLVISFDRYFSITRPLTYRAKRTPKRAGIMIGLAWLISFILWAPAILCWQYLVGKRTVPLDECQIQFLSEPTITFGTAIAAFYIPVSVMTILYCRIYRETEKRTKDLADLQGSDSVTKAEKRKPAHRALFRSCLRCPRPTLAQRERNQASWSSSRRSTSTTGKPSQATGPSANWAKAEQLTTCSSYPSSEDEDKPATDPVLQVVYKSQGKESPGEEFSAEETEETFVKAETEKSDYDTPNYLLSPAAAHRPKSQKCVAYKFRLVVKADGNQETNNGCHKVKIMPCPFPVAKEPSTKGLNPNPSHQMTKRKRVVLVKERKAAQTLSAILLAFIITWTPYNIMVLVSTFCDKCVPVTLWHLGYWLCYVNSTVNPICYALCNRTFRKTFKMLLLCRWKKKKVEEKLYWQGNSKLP

Mus musculus [2] = test: Antinociceptive activity in mouse assessed as licking latency at 1.0 ug, icv after 45 mins by hot plate method; format: functional
Mus musculus [3] = test: Antinociceptive activity in mouse assessed as licking latency at 0.03 ug, icv after 15 mins by hot plate method; format: functional
Mus musculus [4] = test: Antinociceptive activity in mouse assessed as licking latency at 0.1 ug, icv after 15 mins by hot plate method; format: functional
Mus musculus [5] = test: Antinociceptive activity in mouse assessed as licking latency at 0.03 ug, icv after 60 mins by hot plate method; format: functional
Rattus norvegicus = organism: Rattus norvegicus; test: Increase in Ach release in rat parietal cortex by cerebral microdialysis test; format: functional
Mus musculus [6] = test: Antinociceptive activity in mouse assessed as licking latency at 0.01 ug, icv after 15 mins by hot plate method; format: functional
Cholinesterase = Cholinesterase (Homo sapiens, UniProt P06276); test: Inhibition of human serum recombinant BChE after 20 mins
Mus musculus [7] = test: Antinociceptive activity in mouse assessed as licking latency at 0.3 ug, icv after 30 mins by hot plate method; format: functional
Mus musculus [8] = test: Antinociceptive activity in mouse assessed as licking latency at 0.1 ug, icv after 30 mins by hot plate method; format: functional
[9] = target: Muscarinic acetylcholine receptor M3 (Homo sapiens, UniProt P20309); test: Displacement of [3H] N-methyl-scopolamine chloride from human muscarinic receptor M3 expressed in CHO cells; format: cell-based
[10] = target: T2, Muscarinic acetylcholine receptor M2 (Homo sapiens, UniProt P08172); test: Displacement of [3H] N-methyl-scopolamine chloride from human muscarinic receptor M2 expressed in CHO cells; format: cell-based
T2 sequence (P08172 whole entry): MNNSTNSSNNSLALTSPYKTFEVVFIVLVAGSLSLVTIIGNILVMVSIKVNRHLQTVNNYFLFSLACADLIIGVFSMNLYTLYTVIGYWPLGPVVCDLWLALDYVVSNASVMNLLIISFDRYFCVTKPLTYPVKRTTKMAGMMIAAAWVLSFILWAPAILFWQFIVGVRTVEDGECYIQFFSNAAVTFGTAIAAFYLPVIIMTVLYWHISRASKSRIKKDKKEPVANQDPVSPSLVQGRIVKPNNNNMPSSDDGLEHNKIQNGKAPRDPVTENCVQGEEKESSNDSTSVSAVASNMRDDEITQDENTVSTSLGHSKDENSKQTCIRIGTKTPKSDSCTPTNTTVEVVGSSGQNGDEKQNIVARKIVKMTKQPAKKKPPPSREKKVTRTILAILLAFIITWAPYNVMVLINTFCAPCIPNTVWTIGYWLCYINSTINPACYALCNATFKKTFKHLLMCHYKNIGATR

Mus musculus [11] = test: Antinociceptive activity in mouse assessed as licking latency at 0.3 ug, icv after 45 mins by hot plate method; format: functional
Mus musculus [12] = test: Antinociceptive activity in mouse assessed as licking latency at 0.03 ug, icv after 30 mins by hot plate method; format: functional
[13] = target: T3, Muscarinic acetylcholine receptor M1 (Homo sapiens, UniProt P11229); test: Displacement of [3H] N-methyl-scopolamine chloride from human muscarinic receptor M1 expressed in CHO cells; format: cell-based
T3 sequence (P11229 whole entry): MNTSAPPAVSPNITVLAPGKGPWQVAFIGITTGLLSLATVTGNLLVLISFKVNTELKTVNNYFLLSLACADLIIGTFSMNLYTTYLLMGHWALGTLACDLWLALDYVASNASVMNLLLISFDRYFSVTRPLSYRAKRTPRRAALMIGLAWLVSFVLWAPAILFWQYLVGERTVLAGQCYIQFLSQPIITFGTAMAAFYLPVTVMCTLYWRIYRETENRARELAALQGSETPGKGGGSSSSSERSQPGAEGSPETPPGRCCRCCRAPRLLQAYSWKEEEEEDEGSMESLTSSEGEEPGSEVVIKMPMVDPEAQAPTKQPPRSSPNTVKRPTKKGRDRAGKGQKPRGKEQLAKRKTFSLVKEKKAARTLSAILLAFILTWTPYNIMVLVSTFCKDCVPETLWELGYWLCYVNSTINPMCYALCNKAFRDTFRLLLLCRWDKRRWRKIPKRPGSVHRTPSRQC

[14] = target: T4, Muscarinic acetylcholine receptor M2 (Homo sapiens) (UniProt P08172); test: Antagonist potency at muscarinic receptor M2 in guinea pig atrium; format: functional, tissue-based; conditions: Cavia porcellus; Cardiac atrium; target entry is the homologue from another species
T4 sequence (whole entry): T2 sequence (P08172 whole entry)

Mus musculus [15] = test: Antinociceptive activity in mouse assessed as licking latency at 10 ug, icv after 30 mins by hot plate method; format: functional
[16] = target: Muscarinic acetylcholine receptor M3 (Cavia porcellus) (UniProt Q8VH26); test: Antagonist potency at muscarinic receptor M3 in guinea pig ileum; format: functional, tissue-based
Mus musculus [17] = test: Antinociceptive activity in mouse assessed as licking latency at 0.3 ug, icv after 15 mins by hot plate method; format: functional
Mus musculus [18] = test: Antinociceptive activity in mouse assessed as licking latency at 0.01 ug, icv after 60 mins by hot plate method; format: functional

Sequence of Muscarinic acetylcholine receptor M3 (Cavia porcellus) (Q8VH26 1-587): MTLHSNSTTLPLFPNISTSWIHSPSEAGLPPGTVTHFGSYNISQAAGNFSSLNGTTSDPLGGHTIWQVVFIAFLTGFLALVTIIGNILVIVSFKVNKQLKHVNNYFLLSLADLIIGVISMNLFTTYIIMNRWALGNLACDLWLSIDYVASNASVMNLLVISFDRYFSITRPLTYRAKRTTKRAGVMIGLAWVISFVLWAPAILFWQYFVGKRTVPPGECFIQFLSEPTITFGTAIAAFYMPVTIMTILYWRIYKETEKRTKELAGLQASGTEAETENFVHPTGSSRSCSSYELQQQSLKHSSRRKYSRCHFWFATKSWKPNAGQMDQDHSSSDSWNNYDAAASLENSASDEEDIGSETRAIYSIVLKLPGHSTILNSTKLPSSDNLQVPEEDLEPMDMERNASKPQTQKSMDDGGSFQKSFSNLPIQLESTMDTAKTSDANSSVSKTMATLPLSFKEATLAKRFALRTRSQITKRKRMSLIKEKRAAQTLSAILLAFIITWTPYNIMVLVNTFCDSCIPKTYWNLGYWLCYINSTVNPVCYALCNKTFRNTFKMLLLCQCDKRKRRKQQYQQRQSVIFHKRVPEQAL
Sequence of Cholinesterase (P06276 whole entry): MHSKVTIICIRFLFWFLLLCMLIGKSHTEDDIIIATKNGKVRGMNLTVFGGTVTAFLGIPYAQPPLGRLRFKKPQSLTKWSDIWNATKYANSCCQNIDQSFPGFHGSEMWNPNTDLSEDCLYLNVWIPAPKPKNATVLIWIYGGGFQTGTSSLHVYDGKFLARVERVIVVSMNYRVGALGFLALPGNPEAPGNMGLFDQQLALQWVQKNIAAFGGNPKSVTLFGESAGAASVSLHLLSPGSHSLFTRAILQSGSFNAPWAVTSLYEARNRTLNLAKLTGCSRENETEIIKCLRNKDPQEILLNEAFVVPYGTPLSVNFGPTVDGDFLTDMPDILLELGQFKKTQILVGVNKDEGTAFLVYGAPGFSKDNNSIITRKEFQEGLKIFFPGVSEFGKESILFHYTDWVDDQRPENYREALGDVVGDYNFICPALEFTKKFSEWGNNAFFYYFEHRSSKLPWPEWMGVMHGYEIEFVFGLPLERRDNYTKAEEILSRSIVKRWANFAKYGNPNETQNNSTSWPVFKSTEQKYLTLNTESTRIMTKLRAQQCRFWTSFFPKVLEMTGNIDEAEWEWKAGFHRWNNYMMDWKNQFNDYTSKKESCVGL
Sequence of Muscarinic acetylcholine receptor M3 (P20309 whole entry): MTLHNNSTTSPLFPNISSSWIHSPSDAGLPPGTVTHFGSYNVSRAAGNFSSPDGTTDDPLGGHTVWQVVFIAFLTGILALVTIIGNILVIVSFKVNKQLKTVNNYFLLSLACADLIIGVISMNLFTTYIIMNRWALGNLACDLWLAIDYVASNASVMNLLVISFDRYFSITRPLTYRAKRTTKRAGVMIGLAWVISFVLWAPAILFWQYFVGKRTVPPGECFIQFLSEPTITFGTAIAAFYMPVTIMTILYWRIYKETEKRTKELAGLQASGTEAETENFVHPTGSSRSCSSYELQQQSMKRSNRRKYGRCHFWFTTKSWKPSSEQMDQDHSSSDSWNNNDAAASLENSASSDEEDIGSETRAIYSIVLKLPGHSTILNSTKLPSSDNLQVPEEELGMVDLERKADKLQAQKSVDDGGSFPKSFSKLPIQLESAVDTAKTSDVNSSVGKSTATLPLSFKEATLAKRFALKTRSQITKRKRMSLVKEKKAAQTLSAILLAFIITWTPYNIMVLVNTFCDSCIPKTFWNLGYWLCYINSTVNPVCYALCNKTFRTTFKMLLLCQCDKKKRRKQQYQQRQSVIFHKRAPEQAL

COc1ccccc1CNCCCCCCN1CCC(CCC2CCN(CCCCCCNCc3ccccc3OC)CC2)CC1 showed a Ki [1] of 170 nM, a Time (Mus musculus [2]) of 18.5 s and a Time (Mus musculus [3]) of 18.6 s. The Time (Mus musculus [4]) was 24.7 s, the Time (Mus musculus [5]) was 16.1 s and the Activity (Rattus norvegicus) was “Active”. It also gave a Time (Mus musculus [6]) of 15.9 s, an IC50 (Cholinesterase) of 10500 nM and a Time (Mus musculus [7]) of 25 s. It also gave a Time (Mus musculus [8]) of 24.5 s, a Ki [9] of 214 nM and a Ki [10] of 6.03 nM. For the same compound, the Time (Mus musculus [11]) was 20.1 s, the Time (Mus musculus [12]) was 19.4 s and the Ki [13] was 20 nM. The pKb [14] was 7.98, the Time (Mus musculus [15]) was 15.6 s and the pKb [16] was 6.58. For the same compound, the Time (Mus musculus [17]) was 23.8 s and the Time (Mus musculus [18]) was 14.2 s.
